In ChEMBL document CHEMBL1641457, “The synthesis and biological evaluation of 1-C-alkyl-L-arabinoiminofuranoses, a novel class of α-glucosidase inhibitors” (Bioorg Med Chem Lett, 2011):

Legend:
[1] = molecular target: Sucrase-isomaltase, intestinal (Rattus norvegicus) (UniProt P23739); test: Inhibition of Wistar rat small intestine isomaltase at 1000 uM after 30 mins
[2] = species on record: Rattus norvegicus; test: Inhibition of Wistar rat small intestine cellobiase at 1000 uM after 30 mins
[3] = molecular target: Lactase/phlorizin hydrolase (Rattus norvegicus) (UniProt Q02401); test: Inhibition of Wistar rat small intestine lactase at 1000 uM after 30 mins
[4] = molecular target: T1, Sucrase-isomaltase, intestinal (Rattus norvegicus, UniProt P23739); test: Inhibition of Wistar rat small intestine isomaltase after 30 mins
[5] = molecular target: T1, Sucrase-isomaltase, intestinal; test: Inhibition of Wistar rat small intestine sucrase after 30 mins
[6] = molecular target: Lysosomal alpha-glucosidase (Rattus norvegicus) (UniProt Q6P7A9); details: Wistar, 1000 uM
Lysosomal alpha-glucosidase (Rattus norvegicus), sequence (Q6P7A9 whole entry): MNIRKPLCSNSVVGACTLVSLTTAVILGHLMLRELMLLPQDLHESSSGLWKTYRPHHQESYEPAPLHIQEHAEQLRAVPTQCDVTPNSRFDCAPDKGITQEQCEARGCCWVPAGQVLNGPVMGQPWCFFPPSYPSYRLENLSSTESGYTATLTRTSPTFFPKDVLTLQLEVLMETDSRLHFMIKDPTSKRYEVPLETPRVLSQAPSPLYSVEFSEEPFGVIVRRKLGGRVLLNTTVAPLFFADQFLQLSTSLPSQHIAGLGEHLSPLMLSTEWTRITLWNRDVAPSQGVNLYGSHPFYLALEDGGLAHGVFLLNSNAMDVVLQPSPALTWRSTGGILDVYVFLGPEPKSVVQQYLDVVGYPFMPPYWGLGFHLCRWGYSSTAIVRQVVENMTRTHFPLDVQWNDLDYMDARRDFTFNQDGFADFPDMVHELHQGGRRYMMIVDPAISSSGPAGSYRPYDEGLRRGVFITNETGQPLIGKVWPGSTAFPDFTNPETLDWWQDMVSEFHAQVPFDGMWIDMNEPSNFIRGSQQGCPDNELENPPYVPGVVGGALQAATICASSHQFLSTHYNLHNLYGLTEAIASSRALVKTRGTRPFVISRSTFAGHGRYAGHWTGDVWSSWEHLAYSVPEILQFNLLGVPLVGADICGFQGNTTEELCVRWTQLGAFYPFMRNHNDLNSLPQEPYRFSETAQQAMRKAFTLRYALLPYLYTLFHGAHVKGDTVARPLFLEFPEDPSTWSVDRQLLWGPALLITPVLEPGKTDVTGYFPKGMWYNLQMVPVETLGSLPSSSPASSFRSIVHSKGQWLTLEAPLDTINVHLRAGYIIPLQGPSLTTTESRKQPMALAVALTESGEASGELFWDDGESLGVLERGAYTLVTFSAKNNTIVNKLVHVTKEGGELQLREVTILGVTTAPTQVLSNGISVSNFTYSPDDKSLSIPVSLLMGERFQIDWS
Description: Inhibition of Wistar rat small intestine maltase at 1000 uM after 30 mins

Lactase/phlorizin hydrolase (Rattus norvegicus), sequence (Q02401 868-1928 limits assumed): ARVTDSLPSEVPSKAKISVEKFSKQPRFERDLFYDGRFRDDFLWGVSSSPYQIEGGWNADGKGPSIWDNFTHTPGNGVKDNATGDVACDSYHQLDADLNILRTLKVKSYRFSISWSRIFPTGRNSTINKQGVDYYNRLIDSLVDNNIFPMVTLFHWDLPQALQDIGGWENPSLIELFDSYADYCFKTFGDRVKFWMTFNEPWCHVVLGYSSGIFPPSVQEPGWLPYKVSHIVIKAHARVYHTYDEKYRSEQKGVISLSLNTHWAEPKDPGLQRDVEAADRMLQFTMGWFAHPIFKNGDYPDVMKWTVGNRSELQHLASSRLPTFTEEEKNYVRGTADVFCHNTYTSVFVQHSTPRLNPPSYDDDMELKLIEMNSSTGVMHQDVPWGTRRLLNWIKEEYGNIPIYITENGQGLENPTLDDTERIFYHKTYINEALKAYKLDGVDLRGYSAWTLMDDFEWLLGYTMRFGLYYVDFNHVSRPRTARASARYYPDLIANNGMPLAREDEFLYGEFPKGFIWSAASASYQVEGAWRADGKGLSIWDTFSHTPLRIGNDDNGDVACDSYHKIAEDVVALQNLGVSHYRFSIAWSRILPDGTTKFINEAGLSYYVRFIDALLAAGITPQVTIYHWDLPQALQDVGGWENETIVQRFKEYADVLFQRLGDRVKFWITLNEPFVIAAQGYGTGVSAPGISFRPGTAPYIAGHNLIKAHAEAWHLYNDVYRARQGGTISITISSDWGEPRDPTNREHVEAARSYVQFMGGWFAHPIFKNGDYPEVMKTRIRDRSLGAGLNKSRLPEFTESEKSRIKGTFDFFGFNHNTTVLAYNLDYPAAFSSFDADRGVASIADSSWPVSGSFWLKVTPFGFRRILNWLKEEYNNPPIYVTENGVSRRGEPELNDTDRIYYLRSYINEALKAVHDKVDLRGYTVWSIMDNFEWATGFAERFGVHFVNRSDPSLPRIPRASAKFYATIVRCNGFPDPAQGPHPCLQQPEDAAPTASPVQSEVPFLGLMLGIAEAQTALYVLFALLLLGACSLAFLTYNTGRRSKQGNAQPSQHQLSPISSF
Sucrase-isomaltase, intestinal (Rattus norvegicus), sequence (P23739 1-1013 limits assumed): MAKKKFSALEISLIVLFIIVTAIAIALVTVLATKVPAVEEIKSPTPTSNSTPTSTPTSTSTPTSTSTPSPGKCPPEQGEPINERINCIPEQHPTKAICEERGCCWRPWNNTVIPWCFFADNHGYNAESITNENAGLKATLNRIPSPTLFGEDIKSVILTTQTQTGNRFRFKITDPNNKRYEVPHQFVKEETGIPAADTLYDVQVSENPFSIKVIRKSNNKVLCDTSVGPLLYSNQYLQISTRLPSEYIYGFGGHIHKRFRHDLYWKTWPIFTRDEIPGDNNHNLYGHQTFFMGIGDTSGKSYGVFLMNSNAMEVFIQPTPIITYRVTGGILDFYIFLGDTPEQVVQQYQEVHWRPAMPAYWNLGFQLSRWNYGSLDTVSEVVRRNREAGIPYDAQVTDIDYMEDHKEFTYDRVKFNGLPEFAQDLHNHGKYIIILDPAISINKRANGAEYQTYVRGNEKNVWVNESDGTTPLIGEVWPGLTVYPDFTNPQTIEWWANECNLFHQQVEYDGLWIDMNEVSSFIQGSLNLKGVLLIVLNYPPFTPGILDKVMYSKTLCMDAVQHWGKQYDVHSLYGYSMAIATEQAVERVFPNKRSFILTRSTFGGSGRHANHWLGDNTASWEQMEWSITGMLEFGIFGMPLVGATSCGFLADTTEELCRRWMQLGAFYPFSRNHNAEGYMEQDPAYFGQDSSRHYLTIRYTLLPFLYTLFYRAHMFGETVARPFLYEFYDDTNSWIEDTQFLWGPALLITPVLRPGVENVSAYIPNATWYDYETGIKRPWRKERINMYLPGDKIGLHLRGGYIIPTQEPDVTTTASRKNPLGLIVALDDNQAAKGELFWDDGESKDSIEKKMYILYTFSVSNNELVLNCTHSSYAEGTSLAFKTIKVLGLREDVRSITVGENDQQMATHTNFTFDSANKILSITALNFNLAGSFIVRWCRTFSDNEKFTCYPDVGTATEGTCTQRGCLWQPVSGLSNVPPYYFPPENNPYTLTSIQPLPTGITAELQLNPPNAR
Sucrase-isomaltase, intestinal (Rattus norvegicus), sequence (P23739 1014-1841 limits assumed): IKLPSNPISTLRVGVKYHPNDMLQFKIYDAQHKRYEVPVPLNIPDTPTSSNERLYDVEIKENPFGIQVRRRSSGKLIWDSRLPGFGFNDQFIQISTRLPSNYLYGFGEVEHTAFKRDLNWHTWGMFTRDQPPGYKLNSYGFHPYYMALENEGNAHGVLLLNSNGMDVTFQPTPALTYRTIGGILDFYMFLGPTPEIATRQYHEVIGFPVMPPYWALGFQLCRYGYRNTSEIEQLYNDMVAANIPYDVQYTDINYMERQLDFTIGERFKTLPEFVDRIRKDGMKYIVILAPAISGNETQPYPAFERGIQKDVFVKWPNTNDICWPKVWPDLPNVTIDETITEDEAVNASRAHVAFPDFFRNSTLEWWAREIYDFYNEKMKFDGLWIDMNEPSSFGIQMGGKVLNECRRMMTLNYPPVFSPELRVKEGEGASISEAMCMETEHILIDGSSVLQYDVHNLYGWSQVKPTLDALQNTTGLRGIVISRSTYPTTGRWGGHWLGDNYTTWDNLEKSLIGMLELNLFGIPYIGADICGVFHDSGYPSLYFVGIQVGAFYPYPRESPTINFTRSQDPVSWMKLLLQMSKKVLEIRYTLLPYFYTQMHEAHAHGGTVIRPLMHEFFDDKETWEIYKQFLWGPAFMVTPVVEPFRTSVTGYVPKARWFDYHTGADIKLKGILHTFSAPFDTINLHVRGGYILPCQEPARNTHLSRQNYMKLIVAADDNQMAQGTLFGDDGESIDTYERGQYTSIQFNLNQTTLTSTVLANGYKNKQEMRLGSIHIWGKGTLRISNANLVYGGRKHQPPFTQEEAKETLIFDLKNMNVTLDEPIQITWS
T1 sequence (P23739 1-1013 limits assumed): as the sequence (P23739 1-1013 limits assumed) above
T1 sequence (P23739 1014-1841 limits assumed): as the sequence (P23739 1014-1841 limits assumed) above

SMILES | inhibition [1] | inhibition [2] | inhibition [3] | IC50 [4] | IC50 [5] | inhibition [6]
C[C@H]1O[C@H](O[C@H]2[C@H](O)[C@@H](O)[C@@H](O[C@H]3[C@H](O)[C@@H](O)C(O)O[C@@H]3CO)O[C@@H]2CO)[C@H](O)[C@@H](O)[C@@H]1N[C@H]1C=C(CO)[C@@H](O)[C@H](O)[C@H]1O (some centres not stated) | < 50% | < 50% | < 50% |  |  | 
CCC[C@@H]1N[C@@H](CO)[C@H](O)[C@H]1O |  | < 50% | < 50% | 47 µM | 0.26 µM | 
CCCCCCCCCC[C@@H]1N[C@@H](CO)[C@H](O)[C@H]1O |  | < 50% | < 50% | 606 µM | 1.7 µM | 
CCCCCCC[C@@H]1N[C@@H](CO)[C@H](O)[C@H]1O |  | < 50% | < 50% | 16 µM | 0.24 µM | 
CCCCC[C@@H]1N[C@@H](CO)[C@H](O)[C@H]1O |  | < 50% | < 50% | 18 µM | 0.19 µM | 
OCCN1C[C@H](O)[C@@H](O)[C@H](O)[C@H]1CO [MIGLITOL] |  | < 50% | < 50% |  |  | 
CC[C@@H]1N[C@@H](CO)[C@H](O)[C@H]1O |  | < 50% | < 50% | 11 µM | 0.68 µM | 
CCCCCCCC[C@@H]1N[C@@H](CO)[C@H](O)[C@H]1O |  | < 50% | < 50% | 75 µM | 0.45 µM | 
CCCC[C@H]1N[C@@H](CO)[C@H](O)[C@H]1O | < 50% | < 50% | < 50% |  | 392 µM | < 50%
CCCCCCCCCCC[C@@H]1N[C@@H](CO)[C@H](O)[C@H]1O | < 50% | < 50% | < 50% |  | 13 µM | 

Continued, values first:

inhibition [1] | inhibition [2] | inhibition [3] | IC50 [4] | IC50 [5] | inhibition [6] | SMILES
 | < 50% | < 50% | 11 µM | 0.11 µM |  | CCCCCC[C@@H]1N[C@@H](CO)[C@H](O)[C@H]1O
< 50% | < 50% | < 50% |  | 590 µM |  | CCCCCCCC[C@H]1N[C@@H](CO)[C@H](O)[C@H]1O
< 50% | < 50% | < 50% |  | 8.8 µM |  | CCCC[C@H]1[C@H](O)[C@@H](O)[C@H](CO)N1CCCC
 | < 50% | < 50% | 171 µM | 1.4 µM |  | CCCCCCCCC[C@@H]1N[C@@H](CO)[C@H](O)[C@H]1O
 | < 50% | < 50% | 4.7 µM | 0.032 µM |  | CCCC[C@@H]1N[C@@H](CO)[C@H](O)[C@H]1O
 | < 50% | < 50% | 5.2 µM | 0.37 µM |  | OCC(CO)N[C@H]1C[C@](O)(CO)[C@@H](O)[C@H](O)[C@H]1O [VOGLIBOSE]
